The values that follow come from US12558322B2, “Control method of local release for target compounds by using patterning hydrogel to nanoporous membrane” (KNU-Industry Cooperation Foundation, priority 2018, dated 2026).

In assay [1] the test system is YD-10B cells. Nature of the assay: Actin filament staining of YD-10B cells (colony formation). The settings on record: 5-FU encapsulated in HAMA hydrogel array, 5 days. In kind it is cell-based, human. Here is the method:
To estimate the rate of apoptosis of tumor cells at a controlled release anticancer drug rate, YD-10B cells derived from human oral squamous cancer were cultured on a 15% (w/v) HAMA hydrogel-arrayed amphipathic membrane. The amphipathic membrane was prepared at a size of 20 mm×20 mm and was fixed at the bottom of the cell culture dish with the use of PDMS blocks as supporters to prevent floating in the culture media. Overall, YD-10B cells (100 μL, cell density of 1.0×10^6 cells/mL) were seeded on the HAMA hydrogel-arrayed amphipathic membrane that contained 5-FU. As a control group, YD-10B cells without 5-FU were seeded on the array. The cells were cultured in culture media [RPMI (RPMI 1640 medium, HEPES)] (Gibco, CA, USA) with 10% fetal bovine serum (FBS) (Gibco) and 1% penicillin/streptomycin (Gibco) in an incubator (MCO-18AIC, Sanyo, Japan) at 5% CO2 and 37.5° C. After 5 days, the live/dead assay [live/dead viability/cytotoxicity kit (Invitrogen, MA, USA)] was conducted to evaluate anticancer performance. […] The viability of the YD-10B cells on the amphipathic membrane was evaluated by a fluorescent microscope (Zeiss, Germany). The cytoplasm of live cells was stained with calcein-AM (green fluorescence, excitation wavelength: 488 nm/emission wavelength: 515 nm), while the DNA of dead cells was stained with EthD-1 as fluorescence red (excitation: 570 nm/emission: 602 nm). […]

Assay [2] relates to YD-10B cells. As to the kind of experiment: Live/dead assay of YD-10B cells on 5-FU containing HAMA hydrogel arrays. In kind it is cell-based, human. The settings on record: 5 days. Here is the method:
To estimate the rate of apoptosis of tumor cells at a controlled release anticancer drug rate, YD-10B cells derived from human oral squamous cancer were cultured on a 15% (w/v) HAMA hydrogel-arrayed amphipathic membrane. The amphipathic membrane was prepared at a size of 20 mm×20 mm and was fixed at the bottom of the cell culture dish with the use of PDMS blocks as supporters to prevent floating in the culture media. Overall, YD-10B cells (100 μL, cell density of 1.0×10^6 cells/mL) were seeded on the HAMA hydrogel-arrayed amphipathic membrane that contained 5-FU. As a control group, YD-10B cells without 5-FU were seeded on the array. The cells were cultured in culture media [RPMI (RPMI 1640 medium, HEPES)] (Gibco, CA, USA) with 10% fetal bovine serum (FBS) (Gibco) and 1% penicillin/streptomycin (Gibco) in an incubator (MCO-18AIC, Sanyo, Japan) at 5% CO2 and 37.5° C. After 5 days, the live/dead assay [live/dead viability/cytotoxicity kit (Invitrogen, MA, USA)] was conducted to evaluate anticancer performance. The solution for the live/dead assay was mixed with 20 μL of Ethidium Homodimer-1 (EthD-1) and 5 μL of calcein-AM in 10 mL of DPBS in the dark room. The culture media were eliminated using a micropipette, and the residual media were washed twice by DPBS. The staining solution was added on the arrayed amphipathic membrane and incubated for 40 min. The viability of the YD-10B cells on the amphipathic membrane was evaluated by a fluorescent microscope (Zeiss, Germany). The cytoplasm of live cells was stained with calcein-AM (green fluorescence, excitation wavelength: 488 nm/emission wavelength: 515 nm), while the DNA of dead cells was stained with EthD-1 as fluorescence red (excitation: 570 nm/emission: 602 nm). Additionally, the actin filaments of cells were stained to verify the colony formations of tumor cells. For the fixation of cultured cells, the membrane was washed with DPBS and was immersed in 4% paraformaldehyde (PFA) for 15 min. Triton X-100 was used for permeabilization for 5 min at −20° C. on a PFA-immersed membrane. […]

As for `O=c1[nH]cc(F)c(=O)[nH]1` [5-FU], in the assay on YD-10B cells [1], the “cell growth and colony formation” value was “can inhibit the growth and proliferation of cells”. The “reduction of adhesion rate (calcein-AM expression area)” value in the assay on YD-10B cells [2] (5-FU encapsulated in HAMA hydrogel array, vs without 5-FU) is “approximately 48%”. In the assay on YD-10B cells [2] (HAMA hydrogel arrays containing 5-FU), the “viable cells (live/dead assay)” value is reported as “only a few viable cells were visible”. Besides, the “adhesion area (calcein-AM)” value in the assay with YD-10B cells [2] (cultured with 5-FU in HAMA hydrogel array) is “approximately 19,321 μm^2”.
